Measured values reported in patent US8143394B2, “Pyrido(3,2-d)pyrimidines useful for treating viral infections” (Gilead Sciences, Inc., priority 2006, dated 2012).
pEC50: −log10 of the molar value. Where two headings read alike, the source gives them in different places.

Key:
HCV replicon = test: Anti-HCV replicon assay (EC50, luciferase readout); format: cell-based; details: Hepatitis C virus
Method: (§1) The anti-HCV activity of the pyrido[3,2-d]pyrimidine derivatives of this invention was tested in a human hepatoma Huh-7 cell line harbouring a HCV replicon. The assay comprised the following steps:
(§2) Step 1: Compound Preparation and Serial Dilution
(§3) • 1. for water soluble pyrido[3,2-d]pyrimidine derivatives, a volume of 500 μL of solution in cell media (DMEM, 10% FBS, P/S, L-Glutamine) was prepared with a concentration being twice the concentration of the starting final serial dilution concentration. A volume of 150 μL of the solution was added to the pre-specified wells in column 1 of a 96-well cell culture plate (PerkinElmer, white plate, cat. #6005181, for EC50 assay; black plate, cat. #6005182 for CC50 assay). The rest of the plate, columns 2-12, was filled with 100 μL of cell media. The plate was then placed on a Precision 2000 Workstation to start the serial dilution. Compounds were diluted three times each step from column 1 to column 10. Column 11 was used as a blank control (no compound added). • 2. for pyrido[3,2-d]pyrimidine derivatives requiring DMSO to dissolve, serial dilution is performed in 50% DMSO in a 384-well plate. A solution containing a compound at 100-fold concentration of the starting final serial dilution concentration was prepared in 50% DMSO and added to the pre-specified wells in column 1 of a polypropylene 384-well plate. The plate was then placed on a Precision 2000 Workstation to start the serial dilution. After the serial dilution, a volume of 2 μL of the solution was transferred from the 384-well plate to a 96-well cell culture plate containing 100 μL of cell media on a Biomek FX Workstation. The DMSO concentration in the final assay condition was 0.5% after cells are added to the plate and the total volume in each well is brought to 200 μL. Step 2: to each well of the serial dilution plate prepared above, 100 μL of cell media containing 6000 suspended Huh-7 HCV replicon cells was added with a Multidrop workstation. The plates were incubated for 3 days at 37° C. with 5% CO2. Step 3: Detection: • a) for the EC50 assay, the media in a 96-well cell culture plate was aspirated with a Biotek EL405 plate-washer. A volume of 200 μL of a solution containing a 1:1 mixture of cell-lysis buffer (Promega, Luciferase Cell Culture Lysis 5X Reagent, cat. #E1531) and luciferase substrate solution (Promega, Luciferase Assay, cat. # E4550) was added to each well of the plate with Multidrop. The plate was incubated for 30 minutes at room temperature before the luminescence signal was measured with a TopCount plate-reader. • b) for the CC50 assay, a volume of 100 μL of pre-mixed CellTiter-Glo (Promega, cat. # G7572) solution is added directly to the cell culture in each well of the plate and the luminescence signal is measured with a TopCount plate-reader after 10 minutes of incubation at room temperature.
(§4) Results in table 13 are expressed by the following data: • the 50% effective concentration (EC50), i.e. the concentration that protects 50% of the cell monolayer from virus-induced cythopathic effect, and • the 50% cytostatic concentration (CC50), i.e. the concentration that results in 50% inhibition of cell growth.

[1] = CC50 assay (CellTiter-Glo) in Huh-7 HCV replicon cells; format: cell-based, human; details: human, 50% cytostatic concentration
Method: as §1, §2, §3, §4

[2] = 72 h, human hepatoma Huh-7 cell line harbouring a HCV replicon, 3 days, luciferase, read-out: EC50

Compound: CC(C)C(=O)Nc1ccc(-c2ccc3nc(N)nc(O[C@H]4CCOC4)c3n2)cc1 [Example 27, N-{4-[2-Amino-4-(tetrahydro-furan-3-yloxy)-pyrido[3,2-d]pyrimidin-6-yl]-phenyl}-isobutyramide]
- pEC50 (HCV replicon; [2]): > 6.52
- CC50 at 3 days [1]: > 20 µM

Compound: Nc1nc(O[C@@H]2CCOC2)c2nc(-c3ccc(N4CCCC4=O)cc3)ccc2n1 [Example 28, 1-{4-[2-Amino-4-(tetrahydro-furan-3-yloxy)-pyrido[3,2-d]pyrimidin-6-yl]-phenyl}-pyrrolidin-2-one]
- pEC50 (HCV replicon; [2]): > 6.52
- CC50 at 3 days [1]: > 20 µM

Compound: CC(C)Oc1nc(N)nc2ccc(-c3ccc(NC(=O)C(C)C)cc3)nc12 [Example 29, N-[4-(2-amino-4-isopropoxy-pyrido[3,2-d]pyrimidin-6-yl)-phenyl]-isobutyramide]
- pEC50 (HCV replicon; [2]): > 6.52
- CC50 at 3 days [1]: > 20 µM

Compound: CCOc1nc(N)nc2ccc(-c3ccc(NC(=O)C4(N)CC4)c(F)c3)nc12 [Example 30, 1-Amino-cyclopropanecarboxylic acid [4-(2-amino-4-ethoxy-pyrido[3,2-d]pyrimidin-6-yl)-2-fluoro-phenyl]-amide]
- pEC50 (HCV replicon; [2]): > 6.52
- CC50 at 3 days [1]: > 20 µM

Compound: CCOc1nc(N)nc2ccc(-c3ccc(Nc4nccs4)cc3)nc12 [Example 31]
- pEC50 (HCV replicon; [2]): 6.00 to 6.52
- CC50 at 3 days [1]: 10 to 20 µM

Compound: CCOc1nc(N)nc2ccc(-c3ccc(Nc4nncs4)cc3)nc12 [Example 32, 4-Ethoxy-6-[4-([1,3,4]thiadiazol-2-ylamino)-phenyl]-pyrido[3,2-d]pyrimidin-2-ylamine]
- pEC50 (HCV replicon; [2]): 6.00 to 6.52
- CC50 at 3 days [1]: > 20 µM

Compound: CCOc1nc(N)nc2ccc(-c3ccc(NC(=O)C4(O)CC4)cc3)nc12 [Example 33, 1-Hydroxy-cyclopropanecarboxylic acid [4-(2-amino-4-ethoxy-pyrido[3,2-d]pyrimidin-6-yl)-phenyl]-amide]
- pEC50 (HCV replicon; [2]): > 6.52
- CC50 at 3 days [1]: > 20 µM

Compound: CCOc1nc(N)nc2ccc(-c3ccc(NC(=O)[C@H](C)N)c(F)c3)nc12 [Example 34, 2-Amino-N-[4-(2-amino-4-ethoxy-pyrido[3,2-d]pyrimidin-6-yl)-2-fluoro-phenyl]-propanamide]
- pEC50 (HCV replicon; [2]): > 6.52
- CC50 at 3 days [1]: > 20 µM

Compound: CCOc1nc(N)nc2ccc(-c3cccc(NS(=O)(=O)CC(F)(F)F)c3)nc12 [Example 35, 2,2,2-Trifluoro-ethanesulfonic acid [3-(2-amino-4-ethoxy-pyrido[3,2-d]pyrimidin-6-yl)-phenyl]-amide]
- pEC50 (HCV replicon; [2]): 6.00 to 6.52
- CC50 at 3 days [1]: > 20 µM

Compound: CCOc1nc(N)nc2ccc(-c3ccc(NC(=O)C4(N)CC4)cc3)nc12 [Example 36, 1-Amino-cyclopropanecarboxylic acid [4-(2-amino-4-ethoxy-pyrido[3,2-d]pyrimidin-6-yl)-phenyl]-amide]
- pEC50 (HCV replicon; [2]): > 6.52
- CC50 at 3 days [1]: > 20 µM

Compound: CCOc1nc(N)nc2ccc(-c3ccc(NC(=O)C(C)(C)N)cc3)nc12 [Example 37, 2-Amino-N-[4-(2-amino-4-ethoxy-pyrido[3,2-d]pyrimidin-6-yl)-phenyl]-2-methyl-propionamide]
- pEC50 (HCV replicon; [2]): > 6.52
- CC50 at 3 days [1]: > 20 µM

Compound: CCOc1nc(N)nc2ccc(-c3ccc(NC(=O)[C@H](C)N)c(OC)c3)nc12 [Example 38, 2-Amino-N-[4-(2-amino-4-ethoxy-pyrido[3,2-d]pyrimidin-6-yl)-2-methoxy-phenyl]-propionamide]
- pEC50 (HCV replicon; [2]): > 6.52
- CC50 at 3 days [1]: > 20 µM

Compound: CCOc1nc(N)nc2ccc(-c3ccc(NC(=O)C4CC4)cc3)nc12 [Example 39, Cyclopropanecarboxylic acid [4-(2-amino-4-ethoxy-pyrido[3,2-d]pyrimidin-6-yl)-phenyl]-amide]
- pEC50 (HCV replicon; [2]): > 6.52
- CC50 at 3 days [1]: > 20 µM

Compound: CCOc1nc(N)nc2ccc(-c3cccc(NS(=O)(=O)c4ccc(C)cc4)c3)nc12 [Example 40]
- pEC50 (HCV replicon; [2]): 6.00 to 6.52
- CC50 at 3 days [1]: > 20 µM

Compound: CCOc1nc(N)nc2ccc(-c3ccc(NC(=O)[C@@H](N)CO)cc3)nc12 [Example 41, 2-Amino-N-[4-(2-amino-4-ethoxy-pyrido[3,2-d]pyrimidin-6-yl)-phenyl]-3-hydroxy-propionamide]
- pEC50 (HCV replicon; [2]): > 6.52
- CC50 at 3 days [1]: > 20 µM

Compound: CCOc1nc(N)nc2ccc(-c3ccc(NC(=O)[C@H](C)N)cc3)nc12 [Example 42, 2-Amino-N-[4-(2-amino-4-ethoxy-pyrido[3,2-d]pyrimidin-6-yl)-phenyl]-propionamide]
- pEC50 (HCV replicon; [2]): > 6.52
- CC50 at 3 days [1]: > 20 µM

Compound: CCOc1nc(N)nc2ccc(-c3ccc(NS(C)(=O)=O)cc3)nc12 [Example 43, N-[4-(2-Amino-4-ethoxy-pyrido[3,2-d]pyrimidin-6-yl)-phenyl]-methanesulfonamide]
- pEC50 (HCV replicon; [2]): < 6.00
- CC50 at 3 days [1]: > 20 µM

Compound: CCOc1nc(N)nc2ccc(-c3ccc(NC(=O)OC)cc3)nc12 [Example 44, [4-(2-Amino-4-ethoxy-pyrido[3,2-d]pyrimidin-6-yl)-phenyl]-carbamic acid methyl ester]
- pEC50 (HCV replicon; Huh-7, 72 h): 6.00 to 6.52
- CC50 at 3 days [1]: > 20 µM

Compound: CCOc1nc(N)nc2ccc(-c3cccc(NS(C)(=O)=O)c3)nc12 [Example 45, N-[3-(2-Amino-4-ethoxy-pyrido[3,2-d]pyrimidin-6-yl)-phenyl]-methanesulfonamide]
- pEC50 (HCV replicon; [2]): > 6.52
- CC50 at 3 days [1]: > 20 µM

Compound: CCOc1nc(N)nc2ccc(-c3ccc(NC(=O)CC)cc3)nc12 [Example 46, N-[4-(2-Amino-4-ethoxy-pyrido[3,2-d]pyrimidin-6-yl)-phenyl]-propionamide]
- pEC50 (HCV replicon; [2]): > 6.52
- CC50 at 3 days [1]: > 20 µM

Compound: CCOc1nc(N)nc2ccc(-c3ncc(N)s3)nc12 [Example 47, 6-(5-amino-thiazol-2-yl)-4-ethoxy-pyrido[3,2-d]pyrimidin-2-ylamine]
- pEC50 (HCV replicon; [2]): > 6.52
- CC50 at 3 days [1]: 10 to 20 µM

Compound: CCOc1nc(N)nc2ccc(-c3cccc(NS(=O)(=O)c4cnc(NC(C)=O)s4)c3)nc12 [Example 48, N-{5-[3-(2-Amino-4-ethoxy-pyrido[3,2-d]pyrimidin-6-yl)-phenylsulfamoyl]-thiazol-2-yl}-acetamide]
- pEC50 (HCV replicon; [2]): > 6.52
- CC50 at 3 days [1]: > 20 µM

Compound: CCOc1nc(N)nc2ccc(-c3cccc(NS(=O)(=O)c4cn(C)cn4)c3)nc12 [Example 49, 1-Methyl-1H-imidazole-4-sulfonic acid [3-(2-amino-4-ethoxy-pyrido[3,2-d]pyrimidin-6-yl)-phenyl]-amide]
- pEC50 (HCV replicon; [2]): 6.00 to 6.52
- CC50 at 3 days [1]: > 20 µM

Compound: CCOc1nc(N)nc2ccc(-c3cccc(NS(=O)(=O)c4c(C)noc4C)c3)nc12 [Example 50, 3,5-Dimethyl-isoxazole-4-sulfonic acid [3-(2-amino-4-ethoxy-pyrido[3,2-d]pyrimidin-6-yl)-phenyl]-amide]
- pEC50 (HCV replicon; [2]): 6.00 to 6.52
- CC50 at 3 days [1]: > 20 µM

Compound: CCOc1nc(N)nc2ccc(-c3cccc(NS(=O)(=O)C4CCS(=O)(=O)C4)c3)nc12 (stereo not shown) [Example 51, 1,1-Dioxo-tetrahydro-1?^6-thiophene-3-sulfonic acid [3-(2-amino-4-ethoxy-pyrido[3,2-d]pyrimidin-6-yl)-phenyl]-amide]
- pEC50 (HCV replicon; [2]): > 6.52
- CC50 at 3 days [1]: > 20 µM

Compound: CCOc1nc(N)nc2ccc(-c3cccc(NS(=O)(=O)C(C)C)c3)nc12 [Example 52, Propane-2-sulfonic acid[3-(2-amino-4-ethoxy-pyrido[3,2-d]pyrimidin-6-yl)-phenyl]-amide]
- pEC50 (HCV replicon; [2]): > 6.52
- CC50 at 3 days [1]: < 10 µM

Compound: CCOc1nc(N)nc2ccc(-c3cccc(NS(=O)(=O)C4CC4)c3)nc12 [Example 53, Cyclopropanesulfonic acid[3-(2-amino-4-ethoxy-pyrido[3,2-d]pyrimidin-6-yl)-phenyl]-amide]
- pEC50 (HCV replicon; [2]): > 6.52
- CC50 at 3 days [1]: > 20 µM

Compound: CCOc1nc(N)nc2ccc(-c3cccc(NS(=O)(=O)CC)c3)nc12 [Example 54, Ethanesulfonic acid [3-(2-amino-4-ethoxy-pyrido[3,2-d]pyrimidin-6-yl)-phenyl]-amide]
- pEC50 (HCV replicon; [2]): > 6.52
- CC50 at 3 days [1]: > 20 µM

Compound: CCOc1nc(N)nc2ccc(-c3ccc(NS(=O)(=O)CC)cc3)nc12 [Example 55, ethanesulfonic acid [4-(2-amino-4-ethoxy-pyrido[3,2-d]pyrimidin-6-yl)-phenyl]-amide]
- pEC50 (HCV replicon; [2]): < 6.00
- CC50 at 3 days [1]: > 20 µM
